Values of other authors as cited in patent US9730952B2, “Methods for treating and preventing mucositis” (Indena S.p.A., priority 2006, dated 2017).

Legend:
[1] = tested on: numerous strains of Candida and other pathogenic fungi

Compound: COc1ccc2c(c[n+](C)c3c4cc5c(cc4ccc23)OCO5)c1OC [chelerythrine]
- concentration inhibiting growth of numerous strains of Candida and other pathogenic fungi [1]: nanomolar concentrations
- concentration inhibiting growth of Gram+ and Gram− bacteria (Gram+ and Gram− bacteria): nanomolar concentrations

Compound: CN1Cc2c(ccc3c2OCO3)[C@@H]2[C@H]1c1cc3c(cc1C[C@@H]2O)OCO3 [chelidonine]
- concentration inhibiting growth of numerous strains of Candida and other pathogenic fungi [1]: nanomolar concentrations
- concentration inhibiting growth of Gram+ and Gram− bacteria (Gram+ and Gram− bacteria): nanomolar concentrations
